Patent US20250041461A1, “[177LU] LUTETIUM-PSMA I&T COMPOSITION AND DOSIMETRY, KIT, METHOD OF MAKING, AND METHOD OF USING THEREOF” (Curium US LLC, priority 2023, published 2025)

Experiment: Eclipse PK and dosimetry sub-study, 27 patients, cycle 1 biodistribution and dosimetry (SPECT/CT, OLINDA 2.2.3)
Type: in vivo, human
Settings: for Absorbed Dose Mean (SD): ECLIPSE, after Cycle 1; for Absorbed Dose in Cycle 1, Mean / Absorbed Dose in Cycle 1, min: N = 16
Text: Data Acquisition: All participating sites underwent a rigorous site setup process during which all dose calibrators, scanners, and gamma counters used in the sub-study were calibrated. Sites were allowed to enroll patients in the sub-study only after the completion and approval of all site setup processes by Invicro.
Patients underwent SPECT/CT imaging, with anatomical coverage typically extending from the salivary glands to the pelvis, following the administration of a targeted 7.4±10% GBq of ^177Lu-PSMA-I&T at cycle 1. SPECT/CT imaging was performed at four timepoints: 4 h, 24 h, 48 h, and 168 h post-injection. Additionally, a subset of patients imaged at Cycle 1 (16 out of 27), were also imaged at Cycle 3 (Table 7 in Appendix 1).
Image acquisition and reconstruction protocols were standardized across all imaging timepoints and patients at each site. Furthermore, each site consistently utilized the same SPECT/CT scanner throughout the duration of the study to ensure uniformity.
In general, raw projection data was acquired into a 128×128 matrix with medium energy general purpose (MEGP) collimation using a step and shoot acquisition mode, acquiring 60 projections per detector (180 degrees rotation per detector), 20 seconds per projection, with an acquisition zoom of 1.0, and a 20% (±10%) energy window centered over 208 keV.
A low-dose CT scan was performed prior to beginning the SPECT scan for attenuation correction. Sites were instructed to use the Institutional standard parameters for acquisition of the low-dose CT. Institutional standard reconstruction parameters were used. Scatter correction was required to be applied using a 20% (±10%) scatter window centered over 170 keV.
The imaging data was analysed using Invicro's VivoQuant software, a validated software used in a 21 CFR § 11-compliant workflow. The general quantification approach was based on the principles detailed in the Medical Internal Radiation Dose (MIRD) Pamphlet No. 16,^1 No 23,2 and No 26,3 as appropriate.
SPECT images were calibrated in units of Becquerel (Bq) using a calibration factor derived from a source of known activity, measured during site set up with the same acquisition and reconstruction parameters employed for patient imaging. A patient-specific calibration factor was also derived at each clinical time point after acquisition of the patient SPECT/CT. As a quality control measure, if the patient-specific calibration factor differed by more than 10% from the site set up calibration factor, an investigation was conducted.
Volume of interest (VOI) (kidneys, bladder, liver, lumbar vertebrae L2-L4, lacrimal glands, salivary glands [parotid and submandibular glands], and whole body) were delineated on each dataset by a trained image analyst. […] Organs were segmented either by drawing the entire contour of the organ, or by placing a sphere in a representative region of the organ and then multiplying by the organ's effective mass (based on patient's height and weight).^4 Segmentation methods for each organ are specified in Table 1 and were consistently applied to each patient.
Clearance of the radiopharmaceutical was derived from a data-appropriate fit of each organ's TAC. Depending on the TAC's shape, the data was fitted with the sum of one, two, or three exponentials, or using a rise and fall model. Fitting was performed with in-house Python software. TIACs were calculated through analytical integration of the curve fit extrapolated to infinity. […] A whole-body TAC was derived from delineating the imaged body. The remainder activity was determined by subtracting the cumulative organ TIACs from the whole body TIAC.
Organ TIACs were input into OLINDA 2.2.3 for the computation of organ and whole-body absorbed doses, using International Commission on Radiological Protection (ICRP)-103 weighing factors. The ICRP-89 derived male phantom was used for dose estimation. […]

[1] = Cycle 1, n = 26, patient 12-004 excluded
[2] = Lacrimal Glands (OLINDA sphere model)

O=C([O-])CC[C@H](NC(=O)N[C@@H](CCCCNC(=O)CCCCCCC(=O)NCCCC[C@@H](NC(=O)[C@@H](Cc1ccccc1)NC(=O)[C@@H](Cc1ccc(O)c(I)c1)NC(=O)CC[C@H](C(=O)[O-])N1CCN(CC(=O)[O-])CCN(CC(=O)[O-])CCN(CC(=O)[O-])CC1)C(=O)[O-])C(=O)[O-])C(=O)[O-].[177Lu+3].[H+].[H+].[H+].[H+].[H+] [^177Lu-PSMA I&T, (3S,7S,26R,29R,32R,37R)-29-benzyl-32-(4-hydroxy-3-iodobenzyl)-5,13,20,28,31,34-hexaoxo-37-(4,7,10-tris(carboxymethyl)-1,4,7,10-tetraazacyclododecan-1-yl)-4,6,12,21,27,30,33-heptaazaheptatriacontane-1,3,7,26,37-pentacarboxylic acid; lutetium-177 (III)]
Absorbed Dose Mean (SD) (Bladder): 0.41 (0.05) Gy/GBq
Absorbed Dose Mean (SD) (Bone Marrow): 0.08 (0.12) Gy/GBq
Absorbed Dose, Adrenals, Mean (Cycle 1, n = 26): 0.02 Gy/GBq
Absorbed Dose, Adrenals, max (Cycle 1, n = 26): 0.08 Gy/GBq
Absorbed Dose, Adrenals, median (Cycle 1, n = 26): 0.02 Gy/GBq
Absorbed Dose, Adrenals, min (Cycle 1, n = 26): 0.01 Gy/GBq
Absorbed Dose, Brain, Mean (Cycle 1, n = 26): 0.01 Gy/GBq
Absorbed Dose, Brain, max (Cycle 1, n = 26): 0.07 Gy/GBq
Absorbed Dose, Brain, median (Cycle 1, n = 26): 0.01 Gy/GBq
Absorbed Dose, Brain, min (Cycle 1, n = 26): 0.00 Gy/GBq
Absorbed Dose, Esophagus, Mean (Cycle 1, n = 26): 0.02 Gy/GBq
Absorbed Dose, Esophagus, max (Cycle 1, n = 26): 0.07 Gy/GBq
Absorbed Dose, Esophagus, median (Cycle 1, n = 26): 0.01 Gy/GBq
Absorbed Dose, Esophagus, min (Cycle 1, n = 26): 0.00 Gy/GBq
Absorbed Dose, Eyes, Mean (Cycle 1, n = 26): 0.01 Gy/GBq
Absorbed Dose, Eyes, max (Cycle 1, n = 26): 0.07 Gy/GBq
Absorbed Dose, Eyes, median (Cycle 1, n = 26): 0.01 Gy/GBq
Absorbed Dose, Eyes, min (Cycle 1, n = 26): 0.00 Gy/GBq
Absorbed Dose, Gallbladder wall, Mean (Cycle 1, n = 26): 0.02 Gy/GBq
Absorbed Dose, Gallbladder wall, max (Cycle 1, n = 26): 0.07 Gy/GBq
Absorbed Dose, Gallbladder wall, median (Cycle 1, n = 26): 0.01 Gy/GBq
Absorbed Dose, Gallbladder wall, min (Cycle 1, n = 26): 0.00 Gy/GBq
Absorbed Dose, Heart wall, Mean (Cycle 1, n = 26): 0.02 Gy/GBq
Absorbed Dose, Heart wall, max (Cycle 1, n = 26): 0.07 Gy/GBq
Absorbed Dose, Heart wall, median (Cycle 1, n = 26): 0.01 Gy/GBq
Absorbed Dose, Heart wall, min (Cycle 1, n = 26): 0.00 Gy/GBq
Absorbed Dose, Kidneys, Mean (Cycle 1, n = 26): 0.41 Gy/GBq
Absorbed Dose, Kidneys, max (Cycle 1, n = 26): 0.81 Gy/GBq
Absorbed Dose, Kidneys, median (Cycle 1, n = 26): 0.37 Gy/GBq
Absorbed Dose, Kidneys, min (Cycle 1, n = 26): 0.17 Gy/GBq
Absorbed Dose, Lacrimal Glands, Mean (Cycle 1, n = 26): 0.40 Gy/GBq
Absorbed Dose, Lacrimal Glands, max (Cycle 1, n = 26): 1.19 Gy/GBq
Absorbed Dose, Lacrimal Glands, median (Cycle 1, n = 26): 0.26 Gy/GBq
Absorbed Dose, Lacrimal Glands, min (Cycle 1, n = 26): 0.04 Gy/GBq
Absorbed Dose, Left colon, Mean (Cycle 1, n = 26): 0.47 Gy/GBq
Absorbed Dose, Left colon, max (Cycle 1, n = 26): 1.53 Gy/GBq
Absorbed Dose, Left colon, median (Cycle 1, n = 26): 0.41 Gy/GBq
Absorbed Dose, Left colon, min (Cycle 1, n = 26): 0.01 Gy/GBq
Absorbed Dose, Liver, Mean (Cycle 1, n = 26): 0.04 Gy/GBq
Absorbed Dose, Liver, max (Cycle 1, n = 26): 0.10 Gy/GBq
Absorbed Dose, Liver, median (Cycle 1, n = 26): 0.03 Gy/GBq
Absorbed Dose, Liver, min (Cycle 1, n = 26): 0.01 Gy/GBq
Absorbed Dose, Lungs, Mean (Cycle 1, n = 26): 0.01 Gy/GBq
Absorbed Dose, Lungs, max (Cycle 1, n = 26): 0.07 Gy/GBq
Absorbed Dose, Lungs, median (Cycle 1, n = 26): 0.01 Gy/GBq
Absorbed Dose, Lungs, min (Cycle 1, n = 26): 0.00 Gy/GBq
Absorbed Dose, Osteogenic cells, Mean (Cycle 1, n = 26): 0.05 Gy/GBq
Absorbed Dose, Osteogenic cells, max (Cycle 1, n = 26): 0.29 Gy/GBq
Absorbed Dose, Osteogenic cells, median (Cycle 1, n = 26): 0.02 Gy/GBq
Absorbed Dose, Osteogenic cells, min (Cycle 1, n = 26): 0.00 Gy/GBq
Absorbed Dose, Pancreas, Mean (Cycle 1, n = 26): 0.02 Gy/GBq
Absorbed Dose, Pancreas, max (Cycle 1, n = 26): 0.07 Gy/GBq
Absorbed Dose, Pancreas, median (Cycle 1, n = 26): 0.01 Gy/GBq
Absorbed Dose, Pancreas, min (Cycle 1, n = 26): 0.00 Gy/GBq
Absorbed Dose, Prostate, Mean (Cycle 1, n = 26): 0.02 Gy/GBq
Absorbed Dose, Prostate, max (Cycle 1, n = 26): 0.07 Gy/GBq
Absorbed Dose, Prostate, median (Cycle 1, n = 26): 0.01 Gy/GBq
Absorbed Dose, Prostate, min (Cycle 1, n = 26): 0.01 Gy/GBq
Absorbed Dose, Rectum, Mean (Cycle 1, n = 26): 0.44 Gy/GBq
Absorbed Dose, Rectum, max (Cycle 1, n = 26): 1.46 Gy/GBq
Absorbed Dose, Rectum, median (Cycle 1, n = 26): 0.39 Gy/GBq
Absorbed Dose, Rectum, min (Cycle 1, n = 26): 0.01 Gy/GBq
Absorbed Dose, Red Marrow, Mean (Cycle 1, n = 26): 0.08 Gy/GBq
Absorbed Dose, Red Marrow, max (Cycle 1, n = 26): 0.49 Gy/GBq
Absorbed Dose, Red Marrow, median (Cycle 1, n = 26): 0.03 Gy/GBq
Absorbed Dose, Red Marrow, min (Cycle 1, n = 26): 0.00 Gy/GBq
Absorbed Dose, Right Colon, max (Cycle 1, n = 26): 0.82 Gy/GBq
Absorbed Dose, Right Colon, median (Cycle 1, n = 26): 0.22 Gy/GBq
Absorbed Dose, Right Colon, min (Cycle 1, n = 26): 0.01 Gy/GBq
Absorbed Dose, Right colon, Mean (Cycle 1, n = 26): 0.25 Gy/GBq
Absorbed Dose, Small intestine, Mean (Cycle 1, n = 26): 0.05 Gy/GBq
Absorbed Dose, Small intestine, max (Cycle 1, n = 26): 0.15 Gy/GBq
Absorbed Dose, Small intestine, median (Cycle 1, n = 26): 0.04 Gy/GBq
Absorbed Dose, Small intestine, min (Cycle 1, n = 26): 0.01 Gy/GBq
Absorbed Dose, Spleen, Mean (Cycle 1, n = 26): 0.03 Gy/GBq
Absorbed Dose, Spleen, max (Cycle 1, n = 26): 0.11 Gy/GBq
Absorbed Dose, Spleen, median (Cycle 1, n = 26): 0.02 Gy/GBq
Absorbed Dose, Spleen, min (Cycle 1, n = 26): 0.01 Gy/GBq
Absorbed Dose, Stomach Wall, Mean (Cycle 1, n = 26): 0.02 Gy/GBq
Absorbed Dose, Stomach Wall, max (Cycle 1, n = 26): 0.07 Gy/GBq
Absorbed Dose, Stomach Wall, median (Cycle 1, n = 26): 0.01 Gy/GBq
Absorbed Dose, Stomach Wall, min (Cycle 1, n = 26): 0.00 Gy/GBq
Absorbed Dose, Testes, Mean (Cycle 1, n = 26): 0.01 Gy/GBq
Absorbed Dose, Testes, max (Cycle 1, n = 26): 0.07 Gy/GBq
Absorbed Dose, Testes, median (Cycle 1, n = 26): 0.01 Gy/GBq
Absorbed Dose, Testes, min (Cycle 1, n = 26): 10.00 Gy/GBq
Absorbed Dose, Thymus, Mean (Cycle 1, n = 26): 0.01 Gy/GBq
Absorbed Dose, Thymus, max (Cycle 1, n = 26): 0.07 Gy/GBq
Absorbed Dose, Thymus, median (Cycle 1, n = 26): 0.01 Gy/GBq
Absorbed Dose, Thymus, min (Cycle 1, n = 26): 0.00 Gy/GBq
Absorbed Dose, Thyroid, Mean (Cycle 1, n = 26): 0.01 Gy/GBq
Absorbed Dose, Thyroid, max (Cycle 1, n = 26): 0.07 Gy/GBq
Absorbed Dose, Thyroid, median (Cycle 1, n = 26): 0.01 Gy/GBq
Absorbed Dose, Thyroid, min (Cycle 1, n = 26): 0.00 Gy/GBq
Absorbed Dose, Total Body, Mean (Cycle 1, n = 26): 0.02 Gy/GBq
Absorbed Dose, Total Body, max (Cycle 1, n = 26): 0.09 Gy/GBq
Absorbed Dose, Total Body, median (Cycle 1, n = 26): 0.02 Gy/GBq
Absorbed Dose, Total Body, min (Cycle 1, n = 26): 0.01 Gy/GBq
Absorbed Dose, Urinary Bladder wall, Mean (Cycle 1, n = 26): 0.41 Gy/GBq
Absorbed Dose, Urinary Bladder wall, max (Cycle 1, n = 26): 0.50 Gy/GBq
Absorbed Dose, Urinary Bladder wall, median (Cycle 1, n = 26): 0.41 Gy/GBq
Absorbed Dose, Urinary Bladder wall, min (Cycle 1, n = 26): 0.33 Gy/GBq
absorbed dose, kidneys (Cycle 1, n = 26): 0.41±0.15 Gy/GBq
absorbed dose, left colon (Cycle 1, n = 26): 0.47±0.31 Gy/GBq
absorbed dose, rectum (Cycle 1, n = 26): 0.44±0.30 Gy/GBq
absorbed dose, urinary bladder (Cycle 1, n = 26): 0.41±0.05 Gy/GBq
Absorbed Dose, Salivary Glands, Mean [1]: 0.19 Gy/GBq
Absorbed Dose, Salivary Glands, max [1]: 0.80 Gy/GBq
Absorbed Dose, Salivary Glands, median [1]: 0.15 Gy/GBq
Absorbed Dose, Salivary Glands, min [1]: 0.03 Gy/GBq
Absorbed Dose Mean (SD) (Heart): 0.02 (0.02) Gy/GBq
Absorbed Dose Mean (SD) (Kidneys): 0.41 (0.15) Gy/GBq
Absorbed Dose in Cycle 1, Mean [2]: 0.39 Gy/GBq
Absorbed Dose in Cycle 1, min [2]: 0.04 Gy/GBq
Absorbed Dose Mean (SD) (Lacrimal Glands): 0.40 (0.36) Gy/GBq
Absorbed Dose Mean (SD) (Left Colon): 0.47 (0.31) Gy/GBq
Absorbed Dose Mean (SD) (Liver): 0.04 (0.02) Gy/GBq
Absorbed Dose in Cycle 1, min (Liver): 0.0 Gy/GBq
Absorbed Dose Mean (SD) (Right Colon): 0.25 (0.17) Gy/GBq
Absorbed Dose Mean (SD) (Salivary Glands): 0.19 (0.16) Gy/GBq
Absorbed Dose Mean (SD) (Spleen): 0.03 (0.02) Gy/GBq
Absorbed Dose in Cycle 1, Mean (Testes): 0.0 Gy/GBq
Absorbed Dose Mean (SD) (Thyroid): 0.01 (0.02) Gy/GBq
Absorbed Dose in Cycle 1, Mean (Urinary Bladder wall): 0.40 Gy/GBq
absorbed dose, lacrimal glands (cycle 1): 0.40±0.36 Gy/GBq
mean absorbed dose, bone marrow (red marrow) (cycle 1, image-based (L2-L4)): 0.08±0.12 Gy/GBq
absorbed dose, salivary glands (cycle 1, patient 12-004 excluded): 0.19±0.16 Gy/GBq
